The test system of assay [1] is ABUTH. Description: Pre-emergence herbicidal action against ABUTH. To be noted: Abutilon theophrasti, 504 h; for pest or weed control at 80 g/ha: scored visually after 3 weeks vs untreated controls (100% = plants have died, 0% = like control plants). The format is in vivo, Abutilon theophrasti. An outline of the steps:
(§1)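 Greenhouse pots of sandy loam held seeds covered with soil, onto which the compound was applied before emergence. An aqueous suspension or emulsion of WP or EC was used at 600 to 800 l/ha with 0.2% wetting agent. Percent damage was judged visually at 3 weeks.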

Assay [2] has as its system ALOMY. In words: Pre-emergence herbicidal action against ALOMY. It is filed as in vivo, Alopecurus myosuroides. The conditions noted are these: Alopecurus myosuroides, 504 h, pre-emergence; for pest or weed control at 80 g/ha: scored visually after 3 weeks vs untreated controls (100% = plants have died, 0% = like control plants); for pest or weed control at 20 g/ha: scored visually after 3 weeks, 100% = plants have died, 0% = like control plants. The gist of the method: as §1

Assay [3] has as its system AMARE. In words: Pre-emergence herbicidal action against AMARE. To be noted: Amaranthus retroflexus, 504 h, scored visually after 3 weeks vs untreated controls, 100% = plants have died, 0% = like control plants. It is filed as in vivo, Amaranthus retroflexus. An outline of the steps: as §1
Assay [4] has as its system AVEFA. Description: Pre-emergence herbicidal action against AVEFA. The format is in vivo, Avena fatua. To be noted: Avena fatua, 504 h; 80 g/ha, pre-emergence. The gist of the method: as §1
Assay [5] has as its system ECHCG. Description: Pre-emergence herbicidal action against ECHCG. The format is in vivo, Echinochloa crus-galli. To be noted: Echinochloa crus-galli, 504 h, 80 g/ha. The gist of the method: as §1
In assay [6] the test system is LOLRI. In words: Pre-emergence herbicidal action against LOLRI. The format is in vivo, Lolium rigidum. To be noted: Lolium rigidum, 504 h, 80 g/ha. An outline of the steps:
as §1

In assay [7] the test system is MATIN. In words: Pre-emergence herbicidal action against MATIN. It is filed as in vivo, Matricaria inodora. The conditions noted are these: Tripleurospermum inodorum, 504 h; for pest or weed control at 20 g/ha: dosage 20 g/ha; for pest or weed control at 80 g/ha: dosage 80 g/ha. An outline of the steps:
as §1

For assay [8], the system named is POLCO. Description: Pre-emergence herbicidal action against POLCO. The format is in vivo, Polygonum convolvulus. To be noted: Fallopia convolvulus, 504 h, dosage 80 g/ha. An outline of the steps:
as §1

Assay [9] concerns SETVI. Description: Pre-emergence herbicidal action against SETVI. It is filed as in vivo, Setaria viridis. To be noted: Setaria viridis, 504 h, dosage 80 g/ha. An outline of the steps: as §1
For assay [10], the system named is VERPE. Description: Pre-emergence herbicidal action against VERPE. The format is in vivo, Veronica persica. The conditions noted are these: Veronica persica, 504 h. The gist of the method: as §1
For assay [11], the system named is VIOTR. In words: Pre-emergence herbicidal action against VIOTR. It is filed as in vivo, Viola tricolor. To be noted: Viola tricolor, 504 h; for pest or weed control at 20 g/ha: dosage 20 g/ha; for pest or weed control at 80 g/ha: dosage 80 g/ha. An outline of the steps: as §1
The subject of assay [12] is ABUTH. Description: Post-emergence herbicidal action against ABUTH. The format is in vivo, Abutilon theophrasti. To be noted: Abutilon theophrasti, 504 h, visual assessment about 3 weeks after treatment vs untreated controls; for pest or weed control at 20 g/ha: dosage 20 g/ha. The gist of the method:
(§2)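 A WP or EC formulation diluted in water with 0.2% wetting agent was sprayed at 600 to 800 l/ha onto one-leaf-stage plants grown in sandy loam. About 3 weeks later, action was rated visually in percent, 100% being dead plants.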

Assay [13] deals with ALOMY. Description: Post-emergence herbicidal action against ALOMY. The format is in vivo, Alopecurus myosuroides. To be noted: Alopecurus myosuroides, 504 h, visual assessment about 3 weeks after treatment vs untreated controls; for pest or weed control at 5 g/ha: dosage 5 g/ha; for pest or weed control at 20 g/ha: dosage 20 g/ha. The gist of the method:
as §2

Assay [14] has as its system AMARE. In words: Post-emergence herbicidal action against AMARE. The format is in vivo, Amaranthus retroflexus. The conditions noted are these: Amaranthus retroflexus, 504 h, 20 g/ha, visual assessment about 3 weeks after treatment, 100% = plants have died, 0% = like control plants. An outline of the steps:
as §2

For assay [15], the system named is PHBPU. In words: Post-emergence herbicidal action against PHBPU. To be noted: Ipomoea purpurea, 504 h. It is filed as in vivo, Pharbitis purpurea. An outline of the steps: as §2
Assay [16] has as its system SETVI. In words: Post-emergence herbicidal action against SETVI. The format is in vivo, Setaria viridis. The conditions noted are these: Setaria viridis, 504 h; for pest or weed control at 5 g/ha: dosage 5 g/ha; for pest or weed control at 20 g/ha: dosage 20 g/ha. An outline of the steps:
as §2

Assay [17] has as its system VIOTR. Description: Post-emergence herbicidal action against VIOTR. The format is in vivo, Viola tricolor. To be noted: Viola tricolor, 504 h, 20 g/ha. An outline of the steps: as §2

Consider `CCNC(=O)c1c(Br)ccc(C(=O)Nc2nnnn2CC)c1Br` [Example 2-342], for which the pest or weed control at 80 g/ha in assay [1] was 100%; in assay [2], 100%; in assay [3], 100%; in assay [4], 90%; in assay [5] it was 80%; in assay [6], 80%. In addition, the pest or weed control at 80 g/ha was determined as 100% in assay [7]; 80% in [8]; 100% in assay [9]; 80% in assay [10] (dosage 80 g/ha); 100% in assay [11]. Also, the pest or weed control at 20 g/ha was 100% in assay [1] (dosage 20 g/ha, scored visually after 3 weeks vs untreated controls, 100% = plants have died, 0% = like control plants, read-out: Pre-emergence action against ABUTH (herbicidal activity in percent)); 90% in assay [2]; 90% in assay [3]; 90% in assay [7]; 80% in assay [10] (dosage 20 g/ha); 90% in assay [11]. Further, the pest or weed control at 20 g/ha was 90% in assay [12]; 90% in [13]; 100% in [14]; 90% in assay [15] (dosage 20 g/ha); 90% in [16]; 80% in assay [17]. Besides, the pest or weed control at 5 g/ha in assay [12] (dosage 5 g/ha) was 80%; in assay [13], 90%; in assay [15] (dosage 5 g/ha) it was 80%; in assay [16], 90%.
Turning to `CCn1nnnc1NC(=O)c1ccc(Br)c(C(=O)NC2CC2)c1Br` [Example 2-343], the pest or weed control at 80 g/ha in [1] was 100%; in [2] it was 90%; in assay [3], 100%; in assay [4] it was 100%; in assay [5], 90%; in [6] it was 90%. The pest or weed control at 80 g/ha in assay [7] came out at 100%; in [8], 90%; in assay [9], 100%; in assay [11], 100%. Moreover, the pest or weed control at 20 g/ha in [2] turned out to be 80%; in [3] it was 100%; in [7], 80%; in assay [11] it was 90%; in [12], 80%; in assay [13] it was 100%. Moreover, the pest or weed control at 20 g/ha in assay [14] turned out to be 100%; in assay [16], 90%; in assay [17] it was 90%. Besides, the values for the pest or weed control at 5 g/ha in [13] and in assay [16] were 80% and 90%, respectively.

These data come from US12655116B2, “Substituted isophthalic acid diamides” (Bayer Aktiengesellschaft, priority 2020, dated 2026).
